Test results: US9063142B1, “Method of predicting sensitivity to prostate cancer therapy” (University of Florida, priority 2004, dated 2015)

Columns and labels:
Format in all cases: cell-based, human
LNCaP cells [1] = experiment: PARP cleavage by Western blotting; details: 30 micro-M pifithrin-alpha 24 hr, then 25 micro-M roscovitine 16 hr, FIG. 5A
Protocol: (§2) Cells were rinsed with PBS and lysed in a buffer containing 50 mM Hepes, pH 7.5, 150 mM NaCl, 1 mM EDTA, 1 mM EGTA, 10% glycerol, 0.5% NP-40, 1 mM dithiothreitol, 0.1 mM phenylmethylsulfonyl fluoride, 2.5 micro-g/ml leupeptin, 0.5 mM NaF, and 0.1 mM Na3VO4. After a 30 min incubation, insoluble material was removed by centrifugation. Cell extracts normalized for amount protein were resolved by SDS-PAGE and transferred to nitrocellulose membranes. Blots were blocked in PBS containing 0.05% Tween and 5% instant milk and incubated with antibody in PBS containing 0.05% Tween for 2 hr at room temperature. Proteins recognized by the antibody were detected by enhanced chemiluminescence using a horseradish peroxidase-coupled secondary antibody as specified by the manufacturer (Pierce).

p53 = p53 abundance in LNCaP cells, Western blotting; details: 30 micro-M pifithrin-alpha 24 hr, then 25 micro-M roscovitine 16 hr, FIG. 5A
Protocol: as §2

LNCaP cells [2] = experiment: DNA fragmentation, Cell Death Detection ELISA; details: co-treated with 25 micro-M roscovitine, 20 hr, FIG. 3A
Protocol: (§1) DNA fragmentation was determined using a photometric enzyme-linked immunoassay (Cell Death Detection ELISA kit, Roche) as specified by the manufacturer. […] Cell lysates were incubated with biotin-conjugated anti-histone antibody and peroxidase-conjugated anti-DNA antibody on streptavidin-coated microtiter plates for 2 hr at room temperature. After incubation with ATBS substrate for development of color, absorbance was read on a spectrophotometer at 405 nm against ABTS solution as the blank. For background determination, lysis buffer was used instead of cell lysate.

PC3 cells = experiment: DNA fragmentation, Cell Death Detection ELISA; details: 20 hr, FIG. 5B
Protocol: as §1

cytochrome c = experiment: Cytochrome c in S100 cytosolic extracts of LNCaP cells, Western blotting; details: 25 micro-M, 20 hr, FIG. 3B
Protocol: Cells were washed in ice-cold PBS, resuspended in an isotonic mitochondrial buffer (210 mM mannitol, 70 mM sucrose, 1 mM EDTA, 10 mM Hepes, pH 7.5, and a protease inhibitor cocktail (Sigma)), and homogenized in a Dounce homogenizer. The heavy membrane fraction was removed by two successive centrifugations, the first at 1000 H g for 10 min and the second at 10,000 H g for 10 min. To obtain the […], the supernatant was centrifuged at 100,000 H g for 90 min.

LNCaP-Rf cells = experiment: Keratin 18 cleavage, M30 immunostaining; details: 25 micro-M, 20 hr, FIG. 2B
Protocol: After incubation, cells were fixed in ice-cold methanol at […]. for 30 min and incubated with FITC-conjugated M30 antibody for 60 min at room temperature. Cells were mounted with Vectashield containing DAPI.

Compound: Cc1ccc(C(=O)Cn2c3c(sc2=N)CCCC3)cc1 [pifithrin-α]
- PARP cleavage in roscovitine-treated cells (LNCaP cells [1]): substantially reduced
- p53 abundance in cells co-treated with roscovitine (p53): did not increase

Compound: z-DEVD-fmk
- roscovitine-induced apoptosis (DNA fragmentation) in presence of caspase inhibitor (LNCaP cells [2]): did not induce apoptosis

Compound: CC[C@H](CO)Nc1nc(NCc2ccccc2)c2ncn(C(C)C)c2n1 [roscovitine, 6-benzylamino-2-[(R)-1-ethyl-2-hydroxye-thylamino]-9-isopropylpurine]
- increase in amounts of fragmented DNA (PC3 cells; 25 μM): 8 fold
- increase in amounts of fragmented DNA (PC3 cells; 50 μM): 3 fold
- cytochrome c in the cytosol (cytochrome c): present
- keratin 18 cleavage (LNCaP-Rf cells): keratin 18 cleavage

Compound: z-LEHD-fmk
- roscovitine-induced apoptosis (DNA fragmentation) in presence of caspase inhibitor (LNCaP cells [2]): did not induce apoptosis
